The target in one test is GTPase KRas (Homo sapiens, UniProt P01116, G12C). Nature of the test: Binding affinity to hexahistidine-tagged recombinant human KRas G12C mutant expressed in Escherichia coli BL21 (DE3) in presence of GDP.
Test [1] deals with GTPase KRas (Homo sapiens), P01116 [G12C]. Nature of the test: Binding affinity to hexahistidine-tagged recombinant human KRas G12C mutant expressed in Escherichia coli BL21 (DE3) assessed as first-order rate constant in presence of GDP.
The test system is the same in test [2]. The test can be described thus: Ratio of Kinact to Ki for hexahistidine-tagged recombinant human KRas G12C mutant expressed in Escherichia coli BL21 (DE3).

One may read the Ki as a dissociation constant, usually derived from enzyme kinetics or from competition with a known ligand.

Where only a bound is given, the exact number is not on record here.

GTPase KRas (Homo sapiens), P01116 [G12C], sequence (P01116 whole entry G12C): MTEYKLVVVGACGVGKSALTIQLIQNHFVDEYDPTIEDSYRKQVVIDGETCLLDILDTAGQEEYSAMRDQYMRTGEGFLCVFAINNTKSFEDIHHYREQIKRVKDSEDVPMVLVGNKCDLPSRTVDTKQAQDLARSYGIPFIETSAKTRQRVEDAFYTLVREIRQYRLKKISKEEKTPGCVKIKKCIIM
GTPase KRas, sequence (P01116 whole entry G12C): as above

In the case of `C=CC(=O)N1CCN(c2ncnc3c(F)c(-c4c(O)cccc4F)c(Cl)cc23)CC1` (atropisomer S), on GTPase KRas, the Ki is > 64 µM. The Kinact in test [1] was > 0.066 s⁻¹. Moreover, the Ratio in test [2] worked out at 1100 M⁻¹ s⁻¹.

The values are drawn from ChEMBL document CHEMBL4196225, “Precedence and Promise of Covalent Inhibitors of EGFR and KRAS for Patients with Non-Small-Cell Lung Cancer” (ACS Med Chem Lett, 2018).
